This is an account of results in patent publication US20240285765A1, “PHTHALOCYANINE DYE COMPOUNDS, CONJUGATES AND METHODS OF USE THEREOF” (Rakuten Medical, Inc., priority 2021, published 2024).

Like-named read-outs stand apart in the source and are kept apart here. A value given as a limit tells only on which side of the number the result lay.

Data set [1] can be described thus: UV-Vis absorption spectra. The class given is physicochemical. On the procedure: The UV-Vis absorption spectra of the compounds in either an organic solvent or aqueous media was recorded in a Varian Cary® 50 UV-Vis spectrophotometer. Compounds of the invention show absorption in the 600-800 nm region of the spectra.
The nature of data set [2]: Singlet oxygen quantum yield, indirect method with chemical quencher (DPBF or ADMA). The following applies: quencher ADMA, aqueous media, 670 nm LED 5 mW/cm^2, reference AlPcSmix. The class given is physicochemical. From the text: Photogeneration quantum yields of singlet oxygen (ΦΔ) were obtained by an indirect method, using either diphenylisobenzofuran (DBPF) or anthracene-9,10-bis-methylmalonate (ADMA) as chemical quenchers in either N,N-dimethylformamide or aqueous media, respectively. Typically, a solution of the phthalocyanine and the quencher was irradiated with a red LED lamp (670 nm) at 5 mW/cm^2. The initial DPBF or ADMA concentrations were kept the same for both the reference and the test samples. The degradation of the DPBF band at 414 nm or ADMA at 401 nm was monitored in a Varian Cary® 50 UV-Vis spectrophotometer, every five seconds in the case of DPBF (up to 30 seconds) and every minute in the case of ADMA (up to five minutes). ZnPc (ΦΔ=0.67) and AlPcSmix (ΦΔ=0.42) were used as references in N,N-dimethylformamide or aqueous media, respectively.
The relative method shown by Eq. (1) was employed for calculations of the ΦΔ:
[formula] • where ΦΔ and ΦΔref are the ^1O2 generation quantum yields for the sample and reference, respectively, m and mref are the DPBF or ADMA photobleaching rates in the presence of the phthalocyanine of the invention and the reference, respectively, and I and Iref are the rates of light absorption by the phthalocyanine derivative and reference, respectively. Concentrations of the test compound and reference were chosen such that their respective absorptions at the irradiation wavelength were the same.

The next data set deals with BxPC3 cells. Description: Cell killing of free dye PIT, CellTox Green Cytotoxicity Assay. The class given is cell-based. The following applies: BxPC3, 0-1 μg/mL free dye, 690 nm laser 64 J/cm2, 24 hours after light. On the procedure:
The PIT killing activity of free dyes were evaluated using the molecules synthesized as Example 12 and Example 13. BxPC3 cells (#CRL-1687, ATCC, Manassas VA) were plated, 5,000 cells per well, in RPMI-1640 media supplemented with 10% FBS and 1% Penicillin/Streptomycin (complete culture media) in a deep-well 96-well plate. Following overnight incubation at 37° C., the culture media were removed and the cells were incubated in 100 μL complete media with 1, 0.333, 0.111, 0.03704, 0.01235, 0.00412, 0.00137, or 0 μg/mL Example 12, Example 13, or IRDye 700DX carboxylate (control) for one hour at 4° C. […]
The effect of different treatment regimens on cell death was measured using the CellTox™ Green Cytotoxicity Assay (Cat No: G8742, Promega, Madison, WI). […] The CellTox™ Green fluorescence signal was measured at 24 hours after light treatment using a fluorescence plate reader. The cells were then lysed with diluted lysis solution (Cat No: G1821, Promega, Madison, WI), incubated at 37° C. for 30 minutes, and the CellTox™ Green fluorescence signal was measured again post-lysis. The percentages of dead cells were calculated by taking the ratio between background (1× CellTox™ Green in complete culture media without cells)-subtracted CellTox™ Green signal per well prior to and post lysis and multiplying the ratio by 100.

Data set [3] in a line: Kinetic (aqueous) solubility in pH 7.4 DPBS, UV quantification. The following applies: kinetic; pH 7.4 DPBS, 4 hours, room temperature (25° C.).
Data set [4] can be described thus: Thermodynamic solubility in pH 7.4 DPBS, UV quantification. The class given is physicochemical. The following applies: Dulbecco's phosphate-buffered saline (DPBS), aqueous buffer, thermodynamic from solid, room temperature (25° C.). On the procedure: A working 1 mM stock solution of the test compound in DMSO was prepared from a 10 mM DMSO stock solution. A spectrum scan from 220 nm to 1000 nm of this working solution was performed in a 96-well UV plate to identify the wavelength maxima. […] The selected stock solution was serially diluted in DMSO to confirm linearity and generate a seven to eight-point calibration curve. Of note, only linear points were considered in the curve.
The resulting solution was placed on a RotoSpin™ shaker at 50 rpm for 24 hours at room temperature (25° C.). The solution was then filtered using a 0.45 μm PVDF filter to remove any insoluble fraction of the compound. A 150 μL aliquot of the filtrate was taken for quantification using UV spectroscopy (POLARstar Omega BMG Plate Reader). The optical densities of the standard solutions and the test sample were acquired at the same wavelength maxima. The test sample concentration was calculated from its optical density using the linearity/calibration curve.

For data set [5] the following is noted: cited from earlier work.

As for “4-((6-((λ5-azaneyl)oxy)-6-oxohexyl)(4-(((λ5-azaneyl)oxy)sulfonyl)butyl)(3-(((19-(((3-(bis(4-(((λ5-azaneyl)oxy)sulfonyl)butyl)(4-sulfonatobutyl)ammonio)propyl)dimethylsilyl)oxy)-19H-6,11-(azeno)-17,21-(azeno[3]episoindoloazeno)benzo[7,8][1,3,5,10]tetraaza[2]silacycloundecino[4,3-a:11,1-a′]diisoindol-19-yl)oxy)dimethylsilyl)propyl)ammonio)butane-1-sulfonate [Example 13]”, in data set [1], the “maximum UV absorbance (UVmax)” value turned out to be 677 nm. The “absorption at 690 nm relative to UVmax” value in data set [1] (wavelength 690 nm) is “approximately 50%”. Further, the “ΦΔ (singlet oxygen quantum yield)” value in data set [2] was “B (B: >0.5)”. In addition, the “cell death (cytotoxicity) following illumination” value in the data set on BxPC3 cells was “dose-dependent cytotoxicity”. In addition, the “Solubility* (kinetic solubility)” value in data set [3] is “C (C: >100 μg/mL)”.
The compound `C[Si](C)(CCCNC(=O)CCCCC(=O)O)O[Si-2]123(O[Si](C)(C)CCCNC(=O)C(CCC[N+](CCCS(=O)(=O)O)(CCCS(=O)(=O)O)CCCS(=O)(=O)O)CCC[N+](CCCS(=O)(=O)O)(CCCS(=O)(=O)O)CCCS(=O)(=O)O)n4c5c6ccccc6c4N=C4c6ccccc6C(=[N+]41)N=c1c4ccccc4c(n12)=NC1=[N+]3C(=N5)c2ccccc21.[Na+].[Na+].[Na+].[Na+].[Na+]` [Example 20] registered a thermodynamic solubility at 24 h in data set [4] of over 100 µg/mL.
As for `[Zn+2].c1ccc2c(c1)-c1nc-2nc2[n-]c(nc3nc([n-]c4nc(n1)-c1ccccc1-4)-c1ccccc1-3)c1ccccc21` [ZnPc], in data set [5] (reference in N,N-dimethylformamide), the ΦΔ of reference is given as 0.67.
Consider “3-((6-((λ^5-azaneyl)oxy)-6-oxohexyl)(3-(((λ5-azaneyl)oxy)sulfonyl)propyl)(3-(((19-(((3-(bis(3-(((λ5-azaneyl)oxy)sulfonyl)propyl)(3-sulfonatopropyl)ammonio)propyl)dimethylsilyl)oxy)-19H-6,11-(azeno)-17,21-(azeno[3]episoindoloazeno)benzo[7,8][1,3,5,10]tetraaza[2]silacycloundecino[4,3-a:11,1-a′]diisoindol-19-yl)oxy)dimethylsilyl)propyl)ammonio)propane-1-sulfonate [Example 12]”, for which the “ΦΔ (singlet oxygen quantum yield)” value in data set [2] was “B (B: >0.5)”. For the same compound, the “cell death (cytotoxicity) following illumination” value with BxPC3 cells is reported as “dose-dependent cytotoxicity”. Besides, the “Solubility* (kinetic solubility)” value in data set [3] was “C (C: >100 μg/mL)”.
In data set [4], `C[Si](C)(CCC[N+](CCCCS(=O)(=O)O)(CCCCS(=O)(=O)O)CCCCS(=O)(=O)O)O[Si-2]123(O[Si](C)(C)CCC[N+](CCCCS(=O)(=O)O)(CCCCS(=O)(=O)O)CCOCCOCCOCCOCCC(=O)O)n4c5c6ccccc6c4N=C4c6ccccc6C(=[N+]41)N=c1c4ccccc4c(n12)=NC1=[N+]3C(=N5)c2ccccc21.[Na+].[Na+].[Na+].[Na+]` [Example 22, Sodium 2-((19-((dimethyl(3-(tris(4-sulfonatobutyl)ammonio)propyl)silyl)oxy)-19H-6,11-(azeno)-17,21-(azeno[3]episoindoloazeno)benzo[7,8][1,3,5,10]tetraaza[2]silacycloundecino[4,3-a:11,1-a′]diisoindol-19-yl)oxy)-2-methyl-6,6-bis(4-sulfonatobutyl)-9,12,15,18-tetraoxa-6-aza-2-silahenicosan-6-ium-21-oate] gave a thermodynamic solubility at 24 h of over 100 µg/mL.
Take AlPcSmix: the ΦΔ of reference in data set [5] (reference in aqueous media) is listed as 0.42.
